Source: patent US11845760B2, “PRMT5 inhibitors” (AMGEN INC., priority 2020, dated 2023)
Where two headings read alike, the source gives them in different places.

Legend:
[1] = system: HCT116 MTAP null cells; test: HCT116 MTAP null cell line proliferation (CellTiter-Glo cell viability, 6 days); type: cell-based; conditions: HCT116 MTAP null cells, 6 days of treatment, CellTiter-Glo cell viability, read-out: HCT-116 MTAP null IC50
Description: (§1) To assess selective anti-proliferative activity of compounds of the invention in cells that have loss expression of MTAP, an HCT-116 isogenic cell line pair was utilized where one cell line was engineered to genetically knockout both MTAP alleles. Cell viability was then assessed in both the parent HCT-116 cell line and the MTAP null cell line after 6 days of treatment with compounds of the present invention. Selective anti-proliferative activity in the MTAP null cell line indicates MTA-cooperative inhibition of PRMT5 and ability to inhibit growth of cancer cells that have loss of MTAP.
(§2) HCT116 MTAP null and WT cells were seeded in 96-well tissue culture plates in RPMI 1640 media+10% fetal bovine serum. Plates were incubated overnight at 37° C. and 5% CO2. Cells were then treated with an 8- or 9-point serial dilution of compound, using a top concentration of 1, or 10 μM, 1:3 serial dilution steps and, a DMSO-only control. Cells were incubated in the presence of drug for 6 days. Effects on cell viability were measured with the CellTiter-Glo® Luminescent Cell Viability Assay (Promega) per manufacturer's recommendation. Assay plates were read on an EnVision™ Multilabel Reader using the Ultra-Sensitive luminescence module. IC50 values were calculated with GraphPad Prism v 5.01 using symmetrical sigmoidal dose-response least squares fit with Hill slope fixed to −1 and top constrain to 100% or GeneData Screener using a 4-parameter logistic model to fit dose response curves.
(§3) Alternatively, compounds could be assayed with a 384 well plate format:
(§4) Compounds were pre-spotted into 384 well plates with a 22-point serial dilution of compound, using a top concentration of 10 or 50 μM, 1:2 serial dilution steps and, a DMSO-only control. HCT116 MTAP null and WT cells were then seeded as above and after 6 days effects on cell viability were measured with the CellTiter-Glo® Luminescent Cell Viability Assay (Promega). Assay plates were read as above and IC50 values were calculated with GeneData Screener using a 4-parameter logistic model to fit dose response curves. The reported IC50 represents the value where the curve transits 50% of control.

[2] = system: HCT116 WT cells; test: HCT116 WT cell line proliferation (CellTiter-Glo cell viability, 6 days); type: cell-based; conditions: HCT116 WT (parent) cells, 6 days of treatment, CellTiter-Glo cell viability, read-out: HCT-116 WT IC50
Description: as §1, §2, §3, §4

Row | Compound | IC50 ([1]; HCT116-MTAP null, 144 h) [nM] | IC50 ([2]; Homo sapiens, HCT-116, 144 h) [nM] | IC50 [1] [nM] | IC50 [2] [nM]
1 | CC1OCc2c1c(N)nc1cnc(C(=O)N3C(C)COCC3c3ccc(OC(F)F)nn3)cc21 (mixture of isomers) [Example 316, ((3R)-4-amino-3-methyl-1,3-dihydrofuro[3,4-c][1,7]naphthyridin-8-yl)((3R,5S)-3-(6-(difluoromethoxy)-3-pyridazinyl)-5-methyl-4-morpholinyl)methanone and ((3R)-4-amino-3-methyl-1,3-dihydrofuro[3,4-c][1,7]naphthyridin-8-yl)((3S,5R)-3-(6-(difluoromethoxy)-3-pyridazinyl)-5-methyl-4-morpholinyl)methanone] |  |  | 35 | 1130
2 | CC(C)Oc1ccc([C@H]2COCCN2C(=O)c2cc3c4c(c(N)nc3cn2)COC4)cn1 (mixture of isomers) [Example 323, (4-amino-1,3-dihydrofuro[3,4-c][1,7]naphthyridin-8-yl)((3R)-3-(6-(2-propanyloxy)-3-pyridinyl)-4-morpholinyl)methanone and (4-amino-1,3-dihydrofuro[3,4-c][1,7]naphthyridin-8-yl)((3S)-3-(6-(2-propanyloxy)-3-pyridinyl)-4-morpholinyl)methanone] | 397 |  |  | 
3 | CC1OCc2c1c(N)nc1cnc(C(=O)N3C(C)COCC3c3ccc(OC(F)(F)F)cc3F)cc21 (mixture of isomers) [Example 330, ((3S)-4-amino-3-methyl-1,3-dihydrofuro[3,4-c][1,7]naphthyridin-8-yl)((3R,5S)-3-(2-fluoro-4-(trifluoromethoxy)phenyl)-5-methyl-4-morpholinyl)methanone and ((3S)-4-amino-3-methyl-1,3-dihydrofuro[3,4-c][1,7]naphthyridin-8-yl)((3S,5R)-3-(2-fluoro-4-(trifluoromethoxy)phenyl)-5-methyl-4-morpholinyl)methanone] |  |  | 403 | 20900
4 | CC1OCc2c1c(N)nc1cnc(C(=O)N3C(C)COCC3c3ccc(C(F)(F)F)cc3F)cc21 (mixture of isomers) [Example 332, ((3S)-4-amino-3-methyl-1,3-dihydrofuro[3,4-c][1,7]naphthyridin-8-yl)((3R,5S)-3-(2-fluoro-4-(trifluoromethyl)phenyl)-5-methyl-4-morpholinyl)methanone and ((3S)-4-amino-3-methyl-1,3-dihydrofuro[3,4-c][1,7]naphthyridin-8-yl)((3S,5R)-3-(2-fluoro-4-(trifluoromethyl)phenyl)-5-methyl-4-morpholinyl)methanone] |  |  | 536 | 23300
5 | CC1OCc2c1c(N)nc1cnc(C(=O)N3CCOCC3c3ccc(C(F)(F)C(F)(F)F)cc3)cc21 (mixture of isomers) [Example 337, ((3R)-4-amino-3-methyl-1,3-dihydrofuro[3,4-c][1,7]naphthyridin-8-yl)((3S)-3-(4-(pentafluoroethyl)phenyl)-4-morpholinyl)methanone and ((3S)-4-amino-3-methyl-1,3-dihydrofuro[3,4-c][1,7]naphthyridin-8-yl)((3S)-3-(4-(pentafluoroethyl)phenyl)-4-morpholinyl)methanone] |  |  | 30 | 1460
6 | C[C@H]1COC[C@@H](c2ccc(C(F)(F)F)cn2)N1C(=O)c1cc2c3c(c(N)nc2cc1Cl)COC3 (racemic) [Example 301, (4-amino-7-chloro-1,3-dihydrofuro[3,4-c]quinolin-8-yl)((3R,5S)-3-methyl-5-(5-(trifluoromethyl)-2-pyridinyl)-4-morpholinyl)methanone and (4-amino-7-chloro-1,3-dihydrofuro[3,4-c]quinolin-8-yl)((3S,5R)-3-methyl-5-(5-(trifluoromethyl)-2-pyridinyl)-4-morpholinyl)methanone] | 6 | 60 |  | 
7 | Nc1nc2ccc(C(=O)N3CCOCC3c3ccccc3Cl)cc2c2c1COC2 (racemic) [Example 360, (4-amino-1,3-dihydrofuro[3,4-c]quinolin-8-yl)-[rac-(3S)-3-(2-chlorophenyl)morpholin-4-yl]methanone] | 1050 |  |  | 
8 | Nc1nc2ccc(C(=O)N3CCOCC3c3cccc(Br)c3)cc2c2c1COC2 (racemic) [Example 366, (4-amino-1,3-dihydrofuro[3,4-c]quinolin-8-yl)-[rac-(3S)-3-(3-bromophenyl)morpholin-4-yl]methanone] | 363 |  |  | 
9 | Nc1nc2cnc(C(=O)N3CCOCC3c3ccc(C4CC4)nc3)cc2c2c1COC2 (racemic) [Example 495, (4-amino-1,3-dihydrofuro[3,4-c][1,7]naphthyridin-8-yl)-[rac-(3S)-3-(6-cyclopropyl-3-pyridyl)morpholin-4-yl]methanone] | 502 |  |  | 
10 | CC1(C)CN(C(=O)c2ccc3nc(N)c4c(c3c2)COC4)[C@@H](c2ccc(C(F)(F)F)cn2)CO1 (single isomer, unassigned) [Example 594] | 99 |  |  | 

Now from value to compound:

Row | IC50 ([1]; HCT116-MTAP null, 144 h) [nM] | IC50 ([2]; Homo sapiens, HCT-116, 144 h) [nM] | IC50 [1] [nM] | IC50 [2] [nM] | Compound
11 | 710 | 572 |  |  | C[C@H]1COC[C@@H](c2ccc(C(F)(F)F)cn2)N1C(=O)c1cc2c3c(c(N)nc2cc1F)COC3 (mixture of isomers) [Example 304, (4-amino-7-fluoro-1,3-dihydrofuro[3,4-c]quinolin-8-yl)((3R,5S)-3-methyl-5-(5-(trifluoromethyl)-2-pyridinyl)-4-morpholinyl)methanone and (4-amino-7-fluoro-1,3-dihydrofuro[3,4-c]quinolin-8-yl)((3S,5R)-3-methyl-5-(5-(trifluoromethyl)-2-pyridinyl)-4-morpholinyl)methanone]
12 |  |  | 53 | 2370 | CC1OCc2c1c(N)nc1ccc(C(=O)N3C(C)COCC3c3ccc(OC(F)F)nn3)cc21 (mixture of isomers) [Example 317, ((3R)-4-amino-3-methyl-1,3-dihydrofuro[3,4-c]quinolin-8-yl)((3R,5S)-3-(6-(difluoromethoxy)-3-pyridazinyl)-5-methyl-4-morpholinyl)methanone and ((3R)-4-amino-3-methyl-1,3-dihydrofuro[3,4-c]quinolin-8-yl)((3S,5R)-3-(6-(difluoromethoxy)-3-pyridazinyl)-5-methyl-4-morpholinyl)methanone]
13 | 771 | > 10000 |  |  | CCOc1ccc(C2COCCN2C(=O)c2cc3c4c(c(N)nc3cn2)[C@@H](C)OC4)nn1 (mixture of isomers) [Example 325, ((3R)-4-amino-3-methyl-1,3-dihydrofuro[3,4-c][1,7]naphthyridin-8-yl)((3R)-3-(6-ethoxy-3-pyridazinyl)-4-morpholinyl)methanone and ((3R)-4-amino-3-methyl-1,3-dihydrofuro[3,4-c][1,7]naphthyridin-8-yl)((3S)-3-(6-ethoxy-3-pyridazinyl)-4-morpholinyl)methanone]
14 |  |  | 35 | 897 | CC1OCc2c1c(N)nc1ccc(C(=O)N3C(C)COCC3c3ccc(C(F)(F)F)cc3F)cc21 (mixture of isomers) [Example 331, ((3R)-4-amino-3-methyl-1,3-dihydrofuro[3,4-c]quinolin-8-yl)((3R,5S)-3-(2-fluoro-4-(trifluoromethyl)phenyl)-5-methyl-4-morpholinyl)methanone and ((3R)-4-amino-3-methyl-1,3-dihydrofuro[3,4-c]quinolin-8-yl)((3S,5R)-3-(2-fluoro-4-(trifluoromethyl)phenyl)-5-methyl-4-morpholinyl)methanone]
15 | 186 |  |  |  | C[C@@H]1COC[C@H](c2cc(F)cc(F)c2)N1C(=O)c1cc2c3c(c(N)nc2cn1)[C@@H](C)OC3 (racemic) [Example 324, ((3R)-4-amino-3-methyl-1,3-dihydrofuro[3,4-c][1,7]naphthyridin-8-yl)((3R,5S)-3-(3,5-difluorophenyl)-5-methyl-4-morpholinyl)methanone and ((3R)-4-amino-3-methyl-1,3-dihydrofuro[3,4-c][1,7]naphthyridin-8-yl)((3S,5R)-3-(3,5-difluorophenyl)-5-methyl-4-morpholinyl)methanone]
16 | 839 |  |  |  | Cc1ccc(C2COCCN2C(=O)c2ccc3nc(N)c4c(c3c2)COC4)cc1 (racemic) [Example 361, (4-amino-1,3-dihydrofuro[3,4-c]quinolin-8-yl)-[rac-(3S)-3-(p-tolyl)morpholin-4-yl]methanone]
17 | 368 |  |  |  | Nc1nc2ccc(C(=O)N3CCOCC3c3ccc(Br)cc3)cc2c2c1COC2 (racemic) [Example 367, (4-amino-1,3-dihydrofuro[3,4-c]quinolin-8-yl)-[rac-(3S)-3-(4-bromophenyl)morpholin-4-yl]methanone]
